Patent US12084472B2 (Ardelyx, Inc., priority 2015, dated 2024)

Target: T1, human TGR5 (Homo sapiens, UniProt Q8TDU6)
T1 construct: expressed in transfected cells; host or cells: HEK293
T1 sequence (Q8TDU6 1-330): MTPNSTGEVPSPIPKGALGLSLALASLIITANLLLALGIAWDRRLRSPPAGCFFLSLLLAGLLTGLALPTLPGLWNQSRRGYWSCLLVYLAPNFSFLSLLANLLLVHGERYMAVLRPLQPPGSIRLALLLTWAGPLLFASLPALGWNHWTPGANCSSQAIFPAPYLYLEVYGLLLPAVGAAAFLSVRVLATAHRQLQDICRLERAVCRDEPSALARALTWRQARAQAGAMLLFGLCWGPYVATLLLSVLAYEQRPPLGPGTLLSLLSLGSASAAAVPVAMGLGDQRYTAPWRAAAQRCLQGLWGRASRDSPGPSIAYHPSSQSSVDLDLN
Assay: Cell-based TGR5 assay (cAMP generation, HTRF)
Details: HEK293 cells stably transfected with human TGR5; cAMP by HTRF; 30 minutes at 37° C.; read-out: pEC50 Human TGR5 (converted)
Method in brief: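 First, compounds in 3-fold serial dilution were placed in HBSS with 10 mM HEPES pH 7.4 and 0.5 mM IBMX. Next, human TGR5-expressing HEK293 cells were added and incubated 30 min at 37° C. Finally, cAMP was detected by HTRF and pEC50 derived by logistic fitting.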

Row | EC50 [nM] | SMILES
1 | < 100 | CC(CCCC(=O)N(CCCO)C[C@H](O)[C@@H](O)[C@H](O)[C@H](O)CO)c1ccc(Cl)c(CNC2(c3cnccc3-c3ccccc3OC3CC3)CC2)c1 (stereo partly drawn) [Compound I-334, 5-{4-chloro-3-[({1-[4-(2-cyclopropoxyphenyl)pyridin-3-yl]cyclopropyl}amino)methyl]phenyl}-N-(3-hydroxypropyl)-N-[(2S,3R,4R,5R)-2,3,4,5,6-pentahydroxyhexyl]hexanamide]
2 | 126 to 1000 | Cc1ccc(SCCCCN(CCCS(C)(=O)=O)C(=O)[C@@H](O)[C@@H](O)[C@H](O)[C@@H](O)CO)cc1COC1(c2cnccc2-c2ccccc2OC2CC2)CC1 [Compound I-561, (2S,3S,4R,5S)-N-(4-{[3-({1-[4-(2-cyclopropoxyphenyl)pyridin-3-yl]cyclopropoxy}methyl)-4-methylphenyl]sulfanyl}butyl)-2,3,4,5,6-pentahydroxy-N-(3-methanesulfonylpropyl)hexanamide]
3 | < 100 | CN(CCSc1ccc(Cl)c(COC2(c3cnccc3-c3ccccc3OC3CC3)CC2)c1)C(=O)[C@@H](O)[C@@H](O)[C@H](O)[C@@H](O)CO [Compound I-555, (2S,3S,4R,5S)-N-(2-{[4-chloro-3-({1-[4-(2-cyclopropoxyphenyl)pyridin-3-yl]cyclopropoxy}methyl)phenyl]sulfanyl}ethyl)-2,3,4,5,6-pentahydroxy-N-methylhexanamide]
4 | < 100 | CCN(C[C@H](O)[C@@H](O)[C@H](O)[C@H](O)CO)C(=O)CCCCc1cc(Cl)c(COC2(c3cnccc3-c3ccccc3OC3CC3)CC2)cc1Cl [Compound I-108, 5-[2,5-dichloro-4-({1-[4-(2-cyclopropoxyphenyl)pyridin-3-yl]cyclopropoxy}methyl)phenyl]-N-ethyl-N-[(2S,3R,4R,5R)-2,3,4,5,6-pentahydroxyhexyl]pentanamide]
5 | < 100 | Cc1ccc(C(C)CCCC(=O)N(C[C@H](O)[C@@H](O)[C@H](O)[C@H](O)CO)C2CCOCC2)cc1CNC1(c2cnccc2-c2ccccc2OC2CC2)CC1 (stereo partly drawn) [Compound I-363, 5-{3-[({1-[4-(2-cyclopropoxyphenyl)pyridin-3-yl]cyclopropyl}amino)methyl]-4-methylphenyl}-N-(oxan-4-yl)-N-[(2S,3R,4R,5R)-2,3,4,5,6-pentahydroxyhexyl]hexanamide]
6 | 126 to 1000 | Cc1cc(CNC2(c3cnccc3-c3ccccc3OC3CC3)CC2)c(C)cc1CCCCC(=O)N(C)C[C@H](O)[C@@H](O)[C@H](O)[C@H](O)CO [Compound I-149, 5-{4-[({1-[4-(2-cyclopropoxyphenyl)pyridin-3-yl]cyclopropyl}amino)methyl]-2,5-dimethylphenyl}-N-methyl-N-[(2S,3R,4R,5R)-2,3,4,5,6-pentahydroxyhexyl]pentanamide]
7 | < 100 | CN(C[C@H](O)[C@@H](O)[C@H](O)[C@H](O)CO)C(=O)CC1(CSc2ccc(Cl)c(CNC3(c4cnccc4-c4ccccc4OC4CC4)CC3)c2)CC1 [Compound I-681, 2-{1-[({4-chloro-3-[({1-[4-(2-cyclopropoxyphenyl)pyridin-3-yl]cyclopropyl}amino)methyl]phenyl}sulfanyl)methyl]cyclopropyl}-N-methyl-N-[(2S,3R,4R,5R)-2,3,4,5,6-pentahydroxyhexyl]acetamide]
8 | < 100 | CN(CCCCNC(=O)NC[C@H](O)[C@@H](O)[C@H](O)[C@H](O)CO)S(=O)(=O)c1ccc(C(F)(F)F)c(COC2(c3cnccc3-c3ccccc3OC3CC3)CC2)c1 [Compound I-469, 1-{4-[N-methyl3-({1-[4-(2-cyclopropoxyphenyl)pyridin-3-yl]cyclopropoxy}methyl)-4-(trifluoromethyl)benzenesulfonamido]butyl}-3-[(2S,3R,4R,5R)-2,3,4,5,6-pentahydroxyhexyl]urea]
9 | 126 to 1000 | Cc1ccc(SCCCN(CCCCO)C(=O)[C@@H](O)[C@@H](O)[C@H](O)[C@@H](O)CO)cc1CNC1(c2cnccc2-c2ccccc2OC2CC2)CC1 [Compound I-546, (2S,3S,4R,5S)-N-[3-({3-[({1-[4-(2-cyclopropoxyphenyl)pyridin-3-yl]cyclopropyl}amino)methyl]-4-methylphenyl}sulfanyl)propyl]-2,3,4,5,6-pentahydroxy-N-(4-hydroxybutyl) hexanamide]
10 | < 100 | CC(CCCCCNC(=O)[C@@H](O)[C@@H](O)[C@H](O)[C@@H](O)CO)c1ccc(Cl)c(CNC2(c3cnccc3-c3ccccc3OC3CC3)CC2)c1 (stereo partly drawn) [Compound I-280, (2S,3S,4R,5S)-N-(6-{4-chloro-3-[({1-[4-(2-cyclopropoxyphenyl)pyridin-3-yl]cyclopropyl}amino)methyl]phenyl}heptyl)-2,3,4,5,6-pentahydroxyhexanamide]
11 | < 100 | O=C(CCCCc1cc(Cl)c(COC2(c3cnccc3-c3ccccc3OC3CC3)CC2)cc1Cl)NCCN1CCN(CC(=O)NC[C@H](O)[C@@H](O)[C@H](O)[C@H](O)CO)CC1 [Compound I-99, 5-[2,5-dichloro-4-({1-[4-(2-cyclopropoxyphenyl)pyridin-3-yl]cyclopropoxy}methyl)phenyl]-N-{2-[4-({[(2S,3R,4R,5R)-2,3,4,5,6-pentahydroxyhexyl]carbamoyl}methyl)piperazin-1-yl]ethyl}pentanamide]
12 | < 100 | COCCN(C[C@@H](O)[C@H](O)[C@@H](O)[C@@H](O)CO)C(=O)CCCC(C)c1ccc(Cl)c(CNC2(c3cnccc3-c3ccccc3OC3CC3)CC2)c1 (stereo partly drawn) [Compound I-333, 5-{4-chloro-3-[({1-[4-(2-cyclopropoxyphenyl)pyridin-3-yl]cyclopropyl}amino)methyl]phenyl}-N-(2-methoxyethyl)-N-[(2R,3S,4S,5S)-2,3,4,5,6-pentahydroxyhexyl]hexanamide]
13 | < 100 | O=S(=O)(c1ccc(Cl)c(COC2(c3cnccc3-c3ccccc3OC3CC3)CC2)c1)N1CCCC1 [Compound I-395, 3-(1-{[2-chloro-5-(pyrrolidine-1-sulfonyl)phenyl]methoxy}cyclopropyl)-4-(2-cyclopropoxyphenyl)pyridine]
14 | 1260 to 10000 | Cc1ccc(SCCCC(=O)N(C)C[C@H](O)[C@@H](O)[C@H](O)[C@H](O)CO)nc1CNC1(c2cnccc2-c2ccccc2OC2CC2)CC1 [Compound I-654, 4-({6-[({1-[4-(2-cyclopropoxyphenyl)pyridin-3-yl]cyclopropyl}amino)methyl]-5-methylpyridin-2-yl}sulfanyl)-N-methyl-N-[(2S,3R,4R,5R)-2,3,4,5,6-pentahydroxyhexyl]butanamide]
15 | 126 to 1000 | CS(=O)(=O)NCCCCN(CCCSc1ccc(Cl)c(COC2(c3cnccc3-c3ccccc3OC3CC3)CC2)c1)C(=O)[C@@H](O)[C@@H](O)[C@H](O)[C@@H](O)CO [Compound I-580, (2S,3S,4R,5S)-N-(3-{[4-chloro-3-({1-[4-(2-cyclopropoxyphenyl)pyridin-3-yl]cyclopropoxy}methyl)phenyl]sulfanyl}propyl)-2,3,4,5,6-pentahydroxy-N-(4-methanesulfonamidobutyl) hexanamide]
16 | < 100 | O=C(C1CCOCC1)N(CCCCc1cc(Cl)c(COC2(c3cnccc3-c3ccccc3OC3CC3)CC2)cc1Cl)C[C@H](O)[C@@H](O)[C@H](O)[C@H](O)CO [Compound I-67, N-(4-(2,5-dichloro-4-((1-(4-(2-cyclopropoxyphenyl)pyridin-3-yl)cyclopropoxy)methyl)phenyl)butyl)-N-((2S,3R,4R,5R)-2,3,4,5,6-pentahydroxyhexyl)tetrahydro-2H-pyran-4-carboxamide]
17 | < 100 | CCOC(=O)NCCCN(CCCCSc1ccc(Cl)c(COC2(c3cnccc3-c3ccccc3OC3CC3)CC2)c1)C(=O)[C@@H](O)[C@@H](O)[C@H](O)[C@@H](O)CO [Compound I-578, ethyl N-{3-[(2S,3S,4R,5S)-N-(4-{[4-chloro-3-({1-[4-(2-cyclopropoxyphenyl)pyridin-3-yl]cyclopropoxy}methyl)phenyl]sulfanyl}butyl)-2,3,4,5,6-pentahydroxyhexanamido]propyl}carbamate]
18 | < 100 | O=C(NCCC1CN(S(=O)(=O)c2ccc(Cl)c(COC3(c4cnccc4-c4ccccc4OC4CC4)CC3)c2)C1)NC[C@H](O)[C@@H](O)[C@H](O)[C@H](O)CO [Compound I-421, 1-(2-{1-[4-chloro-3-({1-[4-(2-cyclopropoxyphenyl)pyridin-3-yl]cyclopropoxy}methyl)benzenesulfonyl]azetidin-3-yl}ethyl)-3-[(2S,3R,4R,5R)-2,3,4,5,6-pentahydroxyhexyl]urea]
19 | 126 to 1000 | CC(CCCC(=O)N(CCC(N)=O)C[C@H](O)[C@@H](O)[C@H](O)[C@H](O)CO)c1ccc(Cl)c(CNC2(c3cnccc3-c3ccccc3OC3CC3)CC2)c1 (stereo partly drawn) [Compound I-335, N-(2-carbamoylethyl)-5-{4-chloro-3-[({1-[4-(2-cyclopropoxyphenyl)pyridin-3-yl]cyclopropyl}amino)methyl]phenyl}-N-[(2S,3R,4R,5R)-2,3,4,5,6-pentahydroxyhexyl]hexanamide]
20 | < 100 | CN(CCSc1ccc(Cl)c(CNC2(c3cnccc3-c3ccccc3OC3CC3)CC2)c1)C(=O)[C@@H](O)[C@@H](O)[C@H](O)[C@@H](O)CO [Compound I-542, (2S,3S,4R,5S)-N-[2-({4-chloro-3-[({1-[4-(2-cyclopropoxyphenyl)pyridin-3-yl]cyclopropyl}amino)methyl]phenyl}sulfanyl)ethyl]-2,3,4,5,6-pentahydroxy-N-methylhexanamide]
21 | 126 to 1000 | O=C(O)CCCCc1cc(Cl)c(CNC2(c3cnccc3-c3ccccc3OC3CC3)CC2)cc1Cl [Compound I-61, 5-[2,5-dichloro-4-[([1-[4-(2-cyclopropoxyphenyl)pyridin-3-yl]cyclopropyl]amino)methyl]phenyl]pentanoic acid]
